According to DBAASP:
Converted amounts (≈) assume the structure as drawn. “And” between values parts separate entries of the source, which are not always exact repeats. Equal values may be shown once. Blank lines part the entries; values can stand above or below the molecule they belong to.

Experiments:
Test in all cases: ≥ marks a high value that may be exact or a test limit, other limits are often not marked, values filed in µg/mL are converted to µM
[1] = system: Bacillus subtilis ATCC 62037
[2] = system: Candida albicans ATCC 10231
[3] = system: Cryptococcus neoformans ATCC 34881
[4] = system: Escherichia coli ATCC 27325
[5] = system: Pseudomonas putida ATCC 17426
[6] = system: Saccharomyces cerevisiae ATCC 44774
[7] = system: Salmonella enterica subsp. enterica serovar Enteritidis ATCC 13076
[8] = system: Staphylococcus aureus ATCC 15752
[9] = system: Streptococcus mutans ATCC 25175
[10] = system: Candida albicans ATCC 36232
[11] = system: Micrococcus luteus ATCC 9341
[12] = system: Staphylococcus aureus ATCC 6538
[13] = system: Pseudomonas aeruginosa
[14] = system: Staphylococcus aureus KO-4
[15] = system: Trichophyton mentagrophytes IFO 5466
[16] = system: Trypanosoma brucei brucei GUT Tat3.1
[17] = system: Acinetobacter baumannii ATCC 17978
[18] = system: Escherichia coli KCTC 1682
[19] = system: Escherichia coli NCTC 12923
[20] = system: Klebsiella pneumoniae NCTC 13368
[21] = system: Pseudomonas aeruginosa CCARM 2095
[22] = system: Pseudomonas aeruginosa KCTC 1637
[23] = system: Pseudomonas aeruginosa NCTC 13437
[24] = system: Pseudomonas aeruginosa PAO1
[25] = system: Salmonella typhimurium KCTC 1926
[26] = system: Staphylococcus aureus ATCC 9144
[27] = system: Staphylococcus aureus CCARM 3001
[28] = system: Staphylococcus aureus CCARM 3543
[29] = system: Staphylococcus aureus KCTC 1621
[30] = system: Staphylococcus aureus USA 300
[31] = system: Staphylococcus epidermidis KCTC 1917
[32] = system: Bacillus subtilis ATCC 6633
[33] = system: Candida albicans ATCC 90112
[34] = system: Escherichia coli ATCC 25922
[35] = system: Micrococcus luteus ATCC 10240
[36] = system: Proteus mirabilis
[37] = system: Pseudomonas aeruginosa ATCC 27853
[38] = system: Staphylococcus aureus ATCC 25923
[39] = system: Staphylococcus epidermidis
[40] = system: Stenotrophomonas maltophilia ATCC 13637
[41] = system: Streptococcus pyogenes
[42] = system: Klebsiella pneumoniae ATCC 10031
[43] = system: Salmonella enterica subsp. enterica serovar Typhimurium ATCC 14028
[44] = system: Shigella dysenteriae ATCC 9752
[45] = system: Staphylococcus aureus ATCC 6538P
[46] = system: Staphylococcus aureus TK784
[47] = system: Staphylococcus epidermidis ATCC 12228
[48] = system: Bacillus subtilis KCTC 3068
[49] = system: Pseudomonas aeruginosa CCARM 2109

Structure (SMILES): CC(C)[C@H](NC(=O)[C@H](CCCCN)NC(=O)CNC(=O)CNC(=O)[C@H](CCC(N)=O)NC(=O)[C@H](CCCCN)NC(=O)CNC(=O)[C@H](CCCN=C(N)N)NC(=O)CNC(=O)[C@H](C)N)C(=O)N[C@@H](CCCN=C(N)N)C(=O)N[C@@H](C)C(=O)N[C@@H](CCCCN)C(=O)N[C@@H](C)C(=O)N[C@@H](CCCCN)C(=O)N[C@H](C(=O)N[C@@H](CCCN=C(N)N)C(=O)N[C@@H](CO)C(=O)N[C@@H](CO)C(=O)O)[C@@H](C)O [AGRGKQGGKVRAKAKTRSS]
MIC [1]: 4.12 µM (≈ 8 µg/mL)
MIC [2]: 8.23 µM (≈ 16 µg/mL)
MIC [3]: 4.12 µM (≈ 8 µg/mL)
MIC [4]: 2.06 µM (≈ 4 µg/mL)
MIC [5]: 2.06 µM (≈ 4 µg/mL)
MIC [6]: 4.12 µM (≈ 8 µg/mL)
MIC [7]: 8.23 µM (≈ 16 µg/mL)
MIC [8]: 8.23 µM (≈ 16 µg/mL)
MIC [9]: 8.23 µM (≈ 16 µg/mL)

Structure (SMILES): CC(C)[C@H](NC(=O)[C@H](CCCCN)NC(=O)[C@H](Cc1ccccc1)NC(=O)[C@@H](NC(=O)[C@@H](NC(=O)[C@H](CCCCN)NC(=O)[C@H](CCCCN)NC(=O)[C@@H](N)CCCCN)C(C)C)C(C)C)C(=O)N[C@@H](CCCCN)C(=O)N[C@@H](Cc1ccccc1)C(=O)N[C@@H](CCCCN)C(=O)N[C@@H](CCCCN)C(N)=O [KKKVVFKVKFKK]
MIC [10]: 4.15 µM and 2.08 µM
MIC [11]: 2.08 µM (≈ 3.13 µg/mL)
MIC [12]: 2.08 µM (≈ 3.13 µg/mL)

Structure (SMILES): CC[C@H](C)[C@H](N)C(=O)N[C@@H](CC(C)C)C(=O)NCC(=O)N[C@@H](CCCCN)C(=O)N[C@H](C(=O)N[C@@H](Cc1c[nH]c2ccccc12)C(=O)N[C@@H](CCCCN)C(=O)N1CCC[C@H]1C(=O)N[C@H](C(=O)N[C@@H](CCCCN)C(=O)N[C@@H](CCCCN)C(=O)N[C@@H](CC(C)C)C(=O)N[C@@H](Cc1ccccc1)C(N)=O)[C@@H](C)CC)[C@@H](C)CC [ILGKIWKPIKKLF]
MIC [17]: 5.05 µM (≈ 8 µg/mL)
MIC [18]: 2 µM (≈ 3.17 µg/mL)
MIC [19]: 10.1 µM (≈ 16 µg/mL)
MIC [20]: ≥ 40.4 µM
MIC [21]: 1 µM (≈ 1.58 µg/mL)
MIC [22]: 2 µM (≈ 3.17 µg/mL)
MIC [23]: ≥ 40.4 µM
MIC [24]: > 80.8 µM
MIC [25]: 1 µM (≈ 1.58 µg/mL)
MIC [26]: 5.05 µM (≈ 8 µg/mL)
MIC [27]: 1 µM (≈ 1.58 µg/mL)
MIC [28]: 0.5 µM (≈ 0.792 µg/mL)
MIC [29]: 2 µM (≈ 3.17 µg/mL)
MIC [30]: ≥ 40.4 µM
MIC [31]: 1 µM (≈ 1.58 µg/mL)

Structure (SMILES): CC[C@H](C)[C@H](NC(=O)CNC(=O)[C@H](CCSC)NC(=O)[C@@H](NC(=O)[C@H](CC(=O)O)NC(=O)[C@@H](N)Cc1ccccc1)C(C)C)C(=O)N[C@H](C(=O)N[C@@H](CCCCN)C(=O)N[C@@H](CCCCN)C(=O)N[C@H](C(=O)N[C@@H](C)C(=O)N[C@@H](CO)C(=O)N[C@@H](C)C(=O)N[C@@H](CC(C)C)C(N)=O)[C@@H](C)CC)[C@@H](C)CC [FDVMGIIKKIASAL]
MIC [32]: 30 µM (≈ 45.1 µg/mL)
MIC [33]: 7.5 µM (≈ 11.3 µg/mL)
MIC [34]: 30 µM (≈ 45.1 µg/mL)
MIC [35]: 30 µM (≈ 45.1 µg/mL)
MIC [36]: ≥ 60 µM
MIC [37]: > 30 µM
MIC [38]: 30 µM (≈ 45.1 µg/mL)
MIC [39]: 30 µM (≈ 45.1 µg/mL)
MIC [40]: 30 µM (≈ 45.1 µg/mL)
MIC [41]: 30 µM (≈ 45.1 µg/mL)

Continued, values first:

MIC [13]: 333 µM (≈ 400 µg/mL)
MIC [14]: ≥ 499 µM
MIC [15]: 20.8 µM (≈ 25 µg/mL)
MIC [16]: ≥ 205 µM
Structure (SMILES): CC[C@H](C)[C@H](NC(=O)[C@H](CCCN=C(N)N)NC(=O)[C@H](CC(C)C)NC(=O)[C@H](Cc1ccc(O)cc1)NC(=O)[C@H](CC(C)C)NC(=O)[C@@H](N)CCCN=C(N)N)C(=O)NCC(=O)N[C@@H](CCCN=C(N)N)C(=O)N[C@@H](CCCN=C(N)N)C(N)=O [RLYLRIGRR]

MIC [32]: 13.3 µM (≈ 20 µg/mL)
MIC [34]: 13.3 µM (≈ 20 µg/mL)
MIC [42]: ≥ 53.4 µM
MIC [35]: 26.7 µM (≈ 40 µg/mL)
MIC [37]: 26.7 µM (≈ 40 µg/mL)
MIC [43]: > 53.4 µM
MIC [44]: ≥ 53.4 µM
MIC [45]: 6.67 µM (≈ 9.99 µg/mL)
MIC [46]: ≥ 53.4 µM
MIC [47]: 26.7 µM (≈ 40 µg/mL)
Structure (SMILES): CC(C)C[C@H](NC(=O)[C@H](Cc1c[nH]c2ccccc12)NC(=O)[C@H](CCCCN)NC(=O)[C@H](CCCCN)NC(=O)[C@H](CC(C)C)NC(=O)[C@H](Cc1c[nH]c2ccccc12)NC(=O)[C@H](CCCCN)NC(=O)[C@H](CCCCN)NC(=O)[C@@H](N)CC(C)C)C(=O)N[C@@H](CCCCN)C(=O)N[C@@H](CCCCN)C(N)=O [LKKWLKKWLKK]

MIC [48]: 4 µM (≈ 7.3 µg/mL)
MIC [18]: 8 µM (≈ 14.6 µg/mL)
MIC [21]: 16 µM (≈ 29.2 µg/mL)
MIC [49]: 16 µM (≈ 29.2 µg/mL)
MIC [22]: 8 µM (≈ 14.6 µg/mL)
MIC [25]: 4 µM (≈ 7.3 µg/mL)
MIC [27]: 8 µM (≈ 14.6 µg/mL)
MIC [28]: 4 µM (≈ 7.3 µg/mL)
MIC [29]: 8 µM (≈ 14.6 µg/mL)
MIC [31]: 2 µM (≈ 3.65 µg/mL)
Structure (SMILES): NC(=O)[C@H](CCCN=C(N)N)NC(=O)[C@H](CCCN=C(N)N)NC(=O)[C@H](Cc1c[nH]c2ccccc12)NC(=O)[C@H](CCCN=C(N)N)NC(=O)[C@H](CCCN=C(N)N)NC(=O)[C@H](Cc1c[nH]c2ccccc12)NC(=O)[C@H](CCCN=C(N)N)NC(=O)[C@H](CCCN=C(N)N)NC(=O)[C@H](Cc1c[nH]c2ccccc12)NC(=O)[C@H](CCCN=C(N)N)NC(=O)[C@@H](N)CCCN=C(N)N [RRWRRWRRWRR]
